Results from US20180327354A1, “Unnatural Analogues of Calcitriol and Uses Thereof” (Vidasym, Inc., priority 2009, published 2018).
“Also recorded” adds a separate entry of the source.

Columns and labels:
CYP24A1 [1] = experiment: CYP24A1 expression induction in HL-60 promyelocytic leukemia cells (real-time RT-PCR); format: cell-based; conditions: Homo sapiens, HL-60 cells
Method: Some compounds were tested in HL-60 promyelocytic leukemia cells and a primary culture of human coronary artery smooth muscle cells (HCASMC) for CYP24A1 induction. It is well documented that CYP24A1 has a VDRE in its promoter region and is a specific target gene of VDR (Meyer et al., 2007, J Biol Chem 282: 22344-22352). […] Compounds also were tested in HCASMC for their effects in inducing VDR. To assess the suitability of a compound for modulating immune responses, compounds were tested in HL-60 for their effects in inducing CD14 expression. To assess the suitability of a compound for treating thrombosis, compounds also were tested in HCASMC for their effects in modulating thrombomodulin and thrombospondin-1.
Compounds are tested in human HL-60 promyelocytic leukemia cells to assess their potency in inducing the expression of CYP24A1 and CD14. HL-60 cells are cultured in IMDM supplemented with 20% heat-inactivated fetal bovine serum at 37° C. in a humidified 5% CO2-95% air atmosphere. Cells are plated into 6 well plates and treated with test agent for 24 h. Cells are lysed with the addition of 1 mL of Trizol and RNA prepared according to the manufacturer's protocol.
Real-time reverse transcription-PCR is performed with the forward and reverse PCR primers and 250 nM of the TAQMAN™ probe specifically designed for CYP24A1 or CD14. (A TAQMAN™ probe is comprised of a fluorophore covalently attached to the 5′-end of the oligonucleotide probe and a quencher at the 3′-end.) After the data acquisition, the CYP24A1 or CD14 mRNA expression level is normalized to the GAPDH mRNA level. FIGS. 2A and 2B show the results from a typical CYP24A1 (FIG. 2A) and CD14 (FIG. 2B) expression study.

CYP24A1 [2] = experiment: CYP24A1 expression induction in primary culture of human coronary artery smooth muscle cells; format: cell-based; conditions: HCASMC
Method: Compounds were tested in a primary culture of HCASMC to assess their potency in inducing the expression of CYP24A1 and VDR.
Primary culture of HCASMC was grown in smooth muscle growth medium SmGM-2 containing 5.5 mM glucose, 5% FBS, 50 μg/ml gentamicin, 50 ng/ml amphotericin-B, 5 μg/ml insulin, 2 ng/ml hFGF, and 0.5 ng/ml hEGF at 37° C. in a humidified 5% CO2-95% air. Cells were grown to >80% confluence and used within five passages.
Cells were plated into 6 well plates and treated with test agent for 24 h. Cells were lysed with the addition of 1 mL of Trizol and RNA prepared according to the manufacturer's protocol.
Real-time reverse transcription-PCR was performed with the forward and reverse PCR primers and […] of the TAQMAN™ probe specifically designed for CYP24A1 or VDR. (A TAQMAN™ probe is comprised of a fluorophore covalently attached to the 5′-end of the oligonucleotide probe and a quencher at the 3′-end.) After the data acquisition, the CYP24A1 or VDR mRNA expression level was normalized to the GAPDH mRNA level. […] Group mean±STDEV (standard deviation) are presented.

[3] = test system: 5/6 nephrectomized uremic rats; experiment: Serum creatinine, BUN, PTH, phosphorus and calcium in 5/6 nephrectomized uremic rats; format: in vivo, Sprague Dawley rats; conditions: for effect on BUN / effect on serum creatinine / effect on serum phosphorus / effect on serum PTH / effect on serum calcium: 5/6 NX rats
Method: The nephrectomy of male, Sprague Dawley, 5/6 rats was performed using a standard two-step surgical ablation procedure (starting body weight ˜200 gm) as previously described (Slatopolsky et al., 1998, Am J Kidney Dis 32: S40-47). Sham operated rats were used as control. The rats were on a diet containing 1.13% calcium and 0.94% phosphorus. Six weeks after the second surgery, treatment was initiated with vehicle (5% ethanol+95% propylene glycol, 0.4 ml/kg) or test agent by intraperitoneal injection (i.p.), 3 times/week, for two weeks (n≥12 per group). Twenty-four hours after the last dose, retro-orbital venous blood was collected for measurement of PTH and other endpoints.
Calcium, serum phosphorus, creatinine, and blood urea nitrogen (BUN) concentrations were measured by a chemistry analyzer (LX-20, Beckman). Serum PTH was measured using a rat intact parathyroid hormone (i-PTH) ELISA kit. For serum chemistry data, group mean±SEM are presented. A t-test was used to analyze differences between baseline 6W (6 weeks after surgery before treatment) and 8W (8 weeks after surgery after two weeks of compound treatment).

[4] = test system: 5/6 nephrectomized uremic rats; experiment: Left ventricular hypertrophy in 5/6 nephrectomized uremic rats; format: in vivo, Sprague Dawley rats; conditions: 5/6 NX rats; for cardiomyocyte morphology: hematoxylin-eosin
Method: The experimental conditions using the 5/6 (subtotal) nephrectomized rats were as described above. Twenty-four hours after the last dose, the rats were anesthetized with pentobarbital sodium (35 mg/kg, i.p.). The animals were sacrificed by cervical dislocation. The hearts were taken and washed with cold saline. After removing the residual saline with filter paper, the weight of the freshly dissected hearts and left ventricles were measured, and the ratio of left ventricle weight to body weight (LVW/BW) and/or left ventricle weight to heart weight (LVW/HW) were calculated. Thereafter, the left ventricles were rapidly put into liquid nitrogen until ready for histological and immunohistochemical analysis.
To examine the cardiomyocyte morphology, the left ventricular tissue was fixed in a 4% formaldehyde-phosphate-buffered saline (pH 7.4) solution overnight. The samples were embedded in wax and cut into 4 μm sections. The sections were stained with hematoxylin-eosin and examined under a microscope.
To determine the diameter of cardiomyocytes, a previously published method was followed (Xiang et al., 2005, Am J Physiol Endocrinol Metab 288: E125-132). The sections of left ventricles were stained with FITC-labeled wheat germ agglutinin (1:5 dilution) for 2 h at room temperature and then examined under a fluorescence microscope to visualize the myocyte membrane. The relative size of the cardiomyocytes was quantified by measuring the diameter of the myocytes, which was the distance between the two plasma membranes of a cell in longitudinal section. The measurement was done using ImageJ software. Data were obtained from 30 cells randomly selected from 5-10 microscopic fields of left ventricle slides.
Group mean±SEM are presented. Differences between SHAM, vehicle, and treated animals were assessed using a t-test, a one-way ANOVA followed by a Dunnett's post-hoc test, or a two-way ANOVA, followed by a Bonferonni post-hoc test. Similar to the human CKD condition, the 5/6 (subtotal) nephrectomized rats are known to develop left ventricular hypertrophy (Wolf et al., 2000, Journal of Cardiovascular Pharmacology 36: S348-350). Some animals were sacrificed before treatment to evaluate the development of left ventricular hypertrophy.

[5] = 24 h, mRNA normalized to GAPDH, Table 3 summary, some values average of 3 or more determinations, read-out: CYP24A1 EC50
[6] = 24 h, Table 4 summary, some values average of 2 or more determinations, read-out: EC50 for CYP24A1 induction
[7] = i.p. 3 times/week for two weeks
[8] = 5/6 NX uremic rats, i.p. 3 times/week for two weeks
[9] = 2 weeks of treatment, 8 weeks after surgery

Row | SMILES | EC50 (CYP24A1 [1]; [5]) [nM] | EC50 (CYP24A1 [2]; [6]) [nM] | effect on BUN [3, 7] | effect on serum creatinine [3, 7] | effect on serum phosphorus [3, 7] | dose at which compound starts to suppress serum PTH [3, 8] [µg/kg] | effect on LVW/BW (left ventricle weight to body weight) [4, 9] | effect on serum PTH [3, 7] | effect on serum calcium [3, 7] | further results
1 | CCC(O)(CC)CCO[C@H](C)C1CCC2/C(=C/C=C3C[C@@H](O)C4(CC4)[C@H](O)C3)CCCC21C (stereo partly drawn) [Vida-10, (4R,8R)-6-((E)-2-((1S,7αS)-1-((R)-1-(3-ethyl-3-hydroxypentyloxy)ethyl)-7α-methyldihydro-1H-inden-4(2H,5H,6H,7H,7αH)-ylidene)ethylidene)spiro[2.5]octane-4,8-diol] | 6.8 | 0.39 | did not significantly affect | did not significantly affect | did not significantly affect | 0.16 | dose-dependent effect on reducing |  |  | fold less potent in raising serum Ca than Vida-11 ([3]; 5/6 NX uremic rats, FIG. 11A): at least 64 fold; fold less potent in suppressing PTH than Vida-11 ([3]; 5/6 NX uremic rats, FIG. 11B): about 16 fold; effect on LVW/BW ([4]; 0.16 and 0.64 μg/kg, FIG. 17): significantly reduced
2 | C=C1[C@H](O)CC(=C/C=C2\CCCC3(C)C2CCC3[C@@H](C)OCCC(O)(CC)CC)C[C@H]1O (stereo partly drawn) [Vida-11, (1R,3R)-5-((E)-2-((1S,3αS,7αS)-1-((R)-1-(3-ethyl-3-hydroxypentyloxy)ethyl)-7α-methyldihydro-1H-inden-4(2H, 5H, 6H, 7H, 7αH)-ylidene)ethylidene)-2-methylenecyclohexane-1,3-diol] | 0.8 | 0.39 | no dose-dependent effect | no dose-dependent effect | did not show a significant effect | 0.01 | reduced LVW/BW at the two lower doses, but not at 0.16 μg/kg | significantly suppress PTH levels in a dose-dependent manner | elevated serum Ca in a dose-dependent manner | dose at which compound raises serum Ca [3, 8]: 0.01 µg/kg
3 | C=C1[C@H](O)CC(=C/C=C2\CCCC3(C)C2CCC3[C@@H](C)OC[C@H](C)C(C)(C)O)C[C@H]1O (stereo partly drawn) [Vida-5, (1R,3R)-5-((E)-2-((3αS,7αS)-1-((R)-1-((S)-3-hydroxy-2,3-dimethylbutoxy)ethyl)-7α-methyldihydro-1H-inden-4(2H,5H,6H, 7H, 7αH)-ylidene)ethylidene)-2-methylenecyclohexane-1,3-diol] | 7.3 | 2 | significantly reduced BUN at the two higher doses (0.16 and 0.64 μg/kg) | at the 4 lower doses, had no significant effect on serum creatinine, but the highest dose reduced serum creatinine | did not have a significant effect | 0.004 | significantly reduces; also recorded: dose-dependent effect on reducing | significantly suppress PTH levels in a dose-dependent manner | did not have a significant effect | EC50 (CYP24A1 [1]; typical study, FIG. 2A, read-out: EC50 for inducing CYP24A1 expression): 5.6 nM; EC50 (CYP24A1 [2]; typical study, FIG. 5A, read-out: EC50 for inducing CYP24A1 expression): 2.9 nM; cardiomyocyte morphology ([4]; 0.01 μg/kg): improved the morphology of the cardiomyocytes; effect on LVW/BW ([4]; 0.04 μg/kg alone, 3×/week, i.p. for 2 weeks): completely normalized LVW/BW; effect on LVW/BW ([4]; 0.04 μg/kg plus losartan (0.025 mg/ml in drinking water)): completely normalized LVW/BW; cardiomyocyte morphology ([4]; 0.16 μg/kg, 3×/week, i.p. for 2 weeks): nearly restored the morphology of the cardiomyocytes back to the Sham level; cardiomyocyte diameter ([4]; 0.01-0.64 μg/kg, 2 weeks of treatment, FIG. 19): decreases cardiomyocytes diameter; also recorded: significantly reduced; effect on LVW/HW (left ventricle weight to heart weight) [4, 9]: significantly reduces; also recorded: dose-dependent effect on reducing
